{"source": "patent US12234231B2", "about": "“EIF4E inhibitors and uses thereof” (PIC Therapeutics, Inc., priority 2021, dated 2025)"}
{"biological_target": "T1, Human eIF4E (aa 28-217) (Homo sapiens, UniProt P06730)", "T1 construct": "Human eIF4E (aa 28-217) with a C-terminal His-tag; made in house", "T1 sequence (P06730 28-217)": "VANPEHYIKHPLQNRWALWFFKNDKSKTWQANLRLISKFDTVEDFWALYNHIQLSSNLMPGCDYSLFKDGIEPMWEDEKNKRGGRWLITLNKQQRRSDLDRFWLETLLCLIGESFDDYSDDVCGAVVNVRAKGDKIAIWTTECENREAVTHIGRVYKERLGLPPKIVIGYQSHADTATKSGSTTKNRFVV", "assay": "Human eIF4E/4G2 binding assay (TR-FRET)", "conditions": "purified eIF4E with biotin labeled 4G2 peptide, 4 hours preincubation at room temperature", "description": "Example 3. Compound Testing in Human eIF4E/4G2 Binding Assay\n1004461 Human eIF4E (aa 28-217) with a C-terminal His-tag was expressed in E. coli in inclusion bodies. The protein was solubilized with 8 M urea and purified under denaturing conditions using nickel-charged HisTrap HP columns (GE Healthcare). The purified protein was then refolded by diluting in 20 mM Hepes pH 7.0, 0.5 M NaCl, 1 mM DTT, 1 mM EDTA, 0.5 M arginine plus 6 M urea, and then dialyzing overnight into the same buffer without the urea. The protein was further dialyzed into 20 mM Hepes, pH 6.5, 50 mM NaCl, 1 mM EDTA, 1 mM DTT, and concentrated using Hitrap SP sepharose FF columns (GE Healthcare). The concentrated protein was dialyzed into 20 mM Hepes, pH 7.0, 0.5M NaCl, 5 mM DTT and 10% glycerol, and stored at −80° C. until use.\nTest compounds (3.43 mM stock in DMSO) were diluted 2-fold in series in DMSO (10 concentration points). Compound solutions (1.2 μl/well) were added into black 384-well polypropylene microplates (Matrix, Thermal Scientific). Twenty-two microliters per well of Assay Buffer (50 mM NaPi, pH 6.5, 50 mM KCl, 1 mM DTT and 0.5 mg/ml gamma globulin) and eight microliters per well of 82.5 nM purified eIF4E in Assay Buffer were added. The samples were incubated at room temperature (20-23° C.) for 4 hours. Biotin labeled 4G2 peptide (Ac-Lys-Gln-Tyr-Asp-Arg-Glu-Phe-Leu-Leu-Asp-Phe-Gln-Phe-Met-Pro-Lys(Aha-Bio)-NH2, 1.75 μM stock in DMSO) was diluted to 0.14 μM in Assay Buffer (without DTT) and 5 μl/well was added. The samples were incubated at room temperature for 20 min. Five microliters per well of 6.4 nM Eu-streptavidin (Eu-SA, Perkin Elmer) and 80 nM Allophycocyanin (APC)-anti His antibody (Columbia Biosciences) in Assay Buffer (without DTT) were then added and the samples were incubated at room temperature for 20 min.\nAssay signals were monitored by reading excitation at 340 nm and emission fluorescence at 615 nm and 665 nm on an Envision reader (Perkin Elmer). Normalized TR-FRET (time-resolved fluorescence resonance energy transfer) assay signal (Rn) was calculated by the formula: Rn=[(A−Ba−C×D)/(D−Bd)]×(Dc−Bd) • Where A is the fluorescence intensity of the sample at 665 nm, • D is the fluorescence intensity of the sample at 615 nm, • Ba and Bd are plate backgrounds at 665 nm and 615 nm, respectively, • Dc is the fluorescence intensity of 0.78 nM Eu-SA in the assay buffer at 615 nm\nThe cross-talk factor (C) is determined by the following formula: C=(Ac−Ba)/(Dc−Bd) Where Ac is the fluorescence intensity of 0.78 nM Eu-SA in the assay buffer at 665 nm.\nIC50 values were calculated using xLFit program (IDBS). Table 2 below lists EC50 of some compounds, wherein A represents IC50≤0.5 μM; B represents 0.5 uM<IC50≤1 μM; and C represents IC50>1 μM.", "units": {"IC50": "nM"}}
{"smiles": "COCCOc1cc(-c2nc(Nc3ncc(-c4cccs4)cc3C(=O)O)sc2CC(C)(C)C)ccc1Cl", "note": "[I-95]", "IC50": "≤ 500"}
{"smiles": "CNCCNC(=O)c1cc(-c2cccs2)cnc1Nc1nc(-c2ccc(OCCOC)c(F)c2)c(CC(C)C)s1", "note": "[I-56, 2-((4-(3-fluoro-4-(2-methoxyethoxy)phenyl)-5-isobutylthiazol-2-yl)amino)-N-(2-(methylamino)ethyl)-5-(thiophen-2-yl)nicotinamide]", "IC50": "> 1000"}
{"smiles": "COCCOc1ccc(-c2nc(Nc3ncc(-c4cccs4)cc3C(=O)O)sc2CC(C)C)cc1F", "note": "[I-30]", "IC50": "500 to 1000"}
{"smiles": "COCCOc1ccc(-c2nc(Nc3cnc(-c4cccs4)cc3C(=O)O)sc2Cc2ccccc2)cc1F", "note": "[I-63]", "IC50": "≤ 500"}
